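These data come from cells grown in 96-well plates and exposed to compound for 48 hours at five concentrations. GI50 is the concentration that inhibits growth by half.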 Activity calls are given as the source filed them. Cut-off read from the data, not from the text of the source: active = GI50 up to about 1.1 µM and inactive = higher.
Assays:
Assay in all cases: DTP human tumour cell line panel, 48 h
[1] = tested on: UO-31
[2] = tested on: HOP-62
[3] = tested on: T47D
[4] = tested on: MDA-MB-435
[5] = tested on: SF-295
[6] = tested on: HCC 2998
[7] = tested on: BT-549
[8] = tested on: SK-MEL-5
[9] = tested on: SW-620
[10] = tested on: HT-29
[11] = tested on: SNB-19
[12] = tested on: OVCAR-5
[13] = tested on: MDA-N
[14] = tested on: DU-145
[15] = tested on: UACC-257
[16] = tested on: PC-3
[17] = tested on: NCI-H226
[18] = tested on: HCT-15
[19] = tested on: SF-268
[20] = tested on: NCI/ADR-RES
[21] = tested on: HOP-92
[22] = tested on: KM12
[23] = tested on: HCT-116
[24] = tested on: K562
[25] = tested on: ACHN
[26] = tested on: 786-0
[27] = tested on: Malme-3M
[28] = tested on: EKVX
[29] = tested on: SNB-75
[30] = tested on: SF-539
[31] = tested on: NCI-H522
[32] = tested on: M14
[33] = tested on: UACC-62
[34] = tested on: A549
[35] = tested on: IGROV-1
[36] = tested on: NCI-H23
[37] = tested on: OVCAR-8
[38] = tested on: MOLT-4
[39] = tested on: RXF 393
[40] = tested on: TK-10
[41] = tested on: SK-MEL-28
[42] = tested on: SN12C
[43] = tested on: Hs-578T
[44] = tested on: MCF7
[45] = tested on: OVCAR-4
[46] = tested on: NCI-H460
[47] = tested on: COLO 205
[48] = tested on: U-251
[49] = tested on: SK-OV-3
[50] = tested on: CCRF-CEM
[51] = tested on: CAKI-1
[52] = tested on: OVCAR-3
[53] = tested on: LOX IMVI
[54] = tested on: MDA-MB-231
[55] = tested on: RPMI-8226
[56] = tested on: HL-60
[57] = tested on: A498
[58] = tested on: SR
[59] = tested on: SK-MEL-2

`COc1cc2c(cc1OC)CN1CCCc3cc(OC)c(OC)cc3C1C2` (stereo not drawn) was tested, and the GI50 [1] was 43.1 µM (inactive), the GI50 [2] was 25 µM (inactive) and the GI50 [3] was 22.9 µM (inactive). For the same molecule, the GI50 [4] was 18.1 µM (inactive), the GI50 [5] was 12.9 µM (inactive) and the GI50 [6] was 33.7 µM (inactive). For the same molecule, the GI50 [7] was 99.3 µM (inactive), the GI50 [8] was 36.1 µM (inactive) and the GI50 [9] was 30.5 µM (inactive). The GI50 [10] was 19.6 µM (inactive), the GI50 [11] was 36.9 µM (inactive) and the GI50 [12] was 51.3 µM (inactive). For the same molecule, the GI50 [13] was 17.3 µM (inactive), the GI50 [14] was 76 µM (inactive) and the GI50 [15] was 67.5 µM (inactive). For the same molecule, the GI50 [16] was 39.8 µM (inactive), the GI50 [17] was 27.9 µM (inactive) and the GI50 [18] was 41.6 µM. For the same molecule, the GI50 [19] was 61 µM (inactive), the GI50 [20] was > 100 µM (inactive) and the GI50 [21] was 21.4 µM (inactive). The GI50 [22] was 50 µM (inactive), the GI50 [23] was 23.1 µM (inactive) and the GI50 [24] was 48.3 µM (inactive). The GI50 [25] was 34.1 µM (inactive), the GI50 [26] was 33.2 µM (inactive) and the GI50 [27] was 30.3 µM (inactive). For the same molecule, the GI50 [28] was 44 µM (inactive), the GI50 [29] was 13.2 µM (inactive) and the GI50 [30] was 24.3 µM (inactive). The GI50 [31] was 29.4 µM (inactive), the GI50 [32] was 40.6 µM (inactive) and the GI50 [33] was 29.6 µM (inactive). The GI50 [34] was 55 µM (inactive), the GI50 [35] was 22 µM (inactive) and the GI50 [36] was 52.4 µM (inactive). The GI50 [37] was 57.7 µM (inactive), the GI50 [38] was 88.1 µM (inactive) and the GI50 [39] was 29.6 µM (inactive). For the same molecule, the GI50 [40] was 51.4 µM (inactive), the GI50 [41] was 32 µM (inactive) and the GI50 [42] was 42.7 µM (inactive). For the same molecule, the GI50 [43] was 40.8 µM (inactive), the GI50 [44] was 31 µM (inactive) and the GI50 [45] was 62.4 µM (inactive). The GI50 [46] was 31.4 µM (inactive), the GI50 [47] was 40.9 µM (inactive) and the GI50 [48] was 36.6 µM (inactive). The GI50 [49] was 63.4 µM (inactive), the GI50 [50] was 48.9 µM (inactive) and the GI50 [51] was 38.6 µM (inactive). For the same molecule, the GI50 [52] was 39.3 µM (inactive), the GI50 [53] was 25.4 µM (inactive) and the GI50 [54] was 56.5 µM (inactive).
`CCOC(=O)/C(=C\Nc1c(C)n(C)n(-c2ccccc2)c1=O)C(=O)c1ccccc1` was tested, and the GI50 [1] was > 100 µM (inactive), the GI50 [2] was > 100 µM (inactive) and the GI50 [3] was > 100 µM (inactive). For the same molecule, the GI50 [4] was > 100 µM (inactive), the GI50 [5] was > 100 µM (inactive) and the GI50 [6] was > 100 µM (inactive). For the same molecule, the GI50 [7] was > 100 µM (inactive), the GI50 [8] was > 100 µM (inactive) and the GI50 [9] was > 100 µM (inactive). For the same molecule, the GI50 [10] was > 100 µM (inactive), the GI50 [11] was > 100 µM (inactive) and the GI50 [12] was > 100 µM (inactive). For the same molecule, the GI50 [13] was > 100 µM (inactive), the GI50 [14] was > 100 µM (inactive) and the GI50 [55] was > 100 µM (inactive). The GI50 [15] was > 100 µM (inactive), the GI50 [56] was > 100 µM (inactive) and the GI50 [16] was > 100 µM (inactive). For the same molecule, the GI50 [17] was > 100 µM (inactive), the GI50 [18] was > 100 µM and the GI50 [19] was > 100 µM (inactive). For the same molecule, the GI50 [21] was > 100 µM (inactive), the GI50 [22] was 0.033 µM (active) and the GI50 [23] was > 100 µM (inactive). The GI50 [24] was > 100 µM (inactive), the GI50 [25] was > 100 µM (inactive) and the GI50 [26] was > 100 µM (inactive). For the same molecule, the GI50 [27] was > 100 µM (inactive), the GI50 [28] was > 100 µM (inactive) and the GI50 [30] was > 100 µM (inactive). For the same molecule, the GI50 [57] was > 100 µM (inactive), the GI50 [31] was > 100 µM (inactive) and the GI50 [32] was > 100 µM (inactive). The GI50 [33] was > 100 µM (inactive), the GI50 [34] was > 100 µM (inactive) and the GI50 [35] was > 100 µM (inactive). For the same molecule, the GI50 [36] was > 100 µM (inactive), the GI50 [38] was > 100 µM (inactive) and the GI50 [39] was > 100 µM (inactive). For the same molecule, the GI50 [40] was > 100 µM (inactive), the GI50 [41] was > 100 µM (inactive) and the GI50 [42] was > 100 µM (inactive). The GI50 [58] was > 100 µM (inactive), the GI50 [43] was > 100 µM (inactive) and the GI50 [44] was > 100 µM (inactive). The GI50 [45] was > 100 µM (inactive), the GI50 [46] was > 100 µM (inactive) and the GI50 [47] was > 100 µM (inactive). For the same molecule, the GI50 [48] was > 100 µM (inactive), the GI50 [49] was > 100 µM (inactive) and the GI50 [50] was > 100 µM (inactive). For the same molecule, the GI50 [59] was > 100 µM (inactive), the GI50 [51] was > 100 µM (inactive) and the GI50 [52] was > 100 µM (inactive). For the same molecule, the GI50 [53] was > 100 µM (inactive) and the GI50 [54] was > 100 µM (inactive).
`FC(F)(F)c1cccc(COCCN2CCN(Cc3cccc(C(F)(F)F)c3)CC2)c1` was tested, and the GI50 [1] was 12.3 µM (inactive), the GI50 [2] was 20 µM (inactive) and the GI50 [3] was 16.3 µM (inactive). The GI50 [5] was 19.7 µM (inactive), the GI50 [6] was 17 µM (inactive) and the GI50 [7] was 15.6 µM (inactive). For the same molecule, the GI50 [8] was 15.8 µM (inactive), the GI50 [9] was 13.1 µM (inactive) and the GI50 [10] was 21.7 µM (inactive). The GI50 [11] was 15.6 µM (inactive), the GI50 [12] was 16.7 µM (inactive) and the GI50 [13] was 15.9 µM (inactive). For the same molecule, the GI50 [14] was 17 µM (inactive), the GI50 [15] was 17.4 µM (inactive) and the GI50 [56] was 36.6 µM (inactive). For the same molecule, the GI50 [16] was 9.33 µM (inactive), the GI50 [17] was 17 µM (inactive) and the GI50 [18] was 16.2 µM. The GI50 [19] was 15.3 µM (inactive), the GI50 [20] was 18.6 µM (inactive) and the GI50 [22] was 18.1 µM (inactive). For the same molecule, the GI50 [23] was 14.4 µM (inactive), the GI50 [24] was 11.8 µM (inactive) and the GI50 [25] was 15.7 µM (inactive). The GI50 [26] was 15.3 µM (inactive), the GI50 [27] was 8.09 µM (inactive) and the GI50 [28] was 11.1 µM (inactive). For the same molecule, the GI50 [29] was 13.5 µM (inactive), the GI50 [30] was 18 µM (inactive) and the GI50 [57] was 14.9 µM (inactive). For the same molecule, the GI50 [31] was 13 µM (inactive), the GI50 [32] was 30.1 µM (inactive) and the GI50 [33] was 15.3 µM (inactive). The GI50 [34] was 16.2 µM (inactive), the GI50 [35] was 15.6 µM (inactive) and the GI50 [36] was 17.9 µM (inactive). For the same molecule, the GI50 [37] was 18.7 µM (inactive), the GI50 [38] was 7.91 µM (inactive) and the GI50 [40] was 13.7 µM (inactive). The GI50 [41] was 17.8 µM (inactive), the GI50 [42] was 18.5 µM (inactive) and the GI50 [58] was 23.4 µM (inactive). The GI50 [43] was 19.5 µM (inactive), the GI50 [44] was 15.7 µM (inactive) and the GI50 [45] was 17.7 µM (inactive). For the same molecule, the GI50 [46] was 16.3 µM (inactive), the GI50 [47] was 15.7 µM (inactive) and the GI50 [48] was 18.1 µM (inactive). The GI50 [49] was 17.3 µM (inactive), the GI50 [50] was 14.1 µM (inactive) and the GI50 [51] was 17.5 µM (inactive). The GI50 [52] was 20 µM (inactive) and the GI50 [54] was 19.3 µM (inactive).
